According to PMC7432838, “A Curcumin Analog Exhibits Multiple Biologic Effects on the Pathogenesis of Alzheimer’s Disease and Improves Behavior, Inflammation, and β-Amyloid Accumulation in a Mouse Model” (International Journal of Molecular Sciences, 2020):

Tests used:
[1] = test system: APP (amyloid precursor protein) in Huh-7 cells; assay: Western blotting of APP protein expression; type: cell-based, human; conditions: 24 h, vs medium control
Procedure: After cells were seeded and treated with curcumin and TML-6 for 24 h, cells were washed with ice-cold PBS (Phosphate Buffered Saline) and lysed with 100 μL of RIPA cell lysis buffer (Pierce Biotechnology, Rockford, IL, USA) supplemented with protease and phosphatase inhibitors (Roche Diagnostics, Mannheim, Germany). Cell lysates were further cleaned by centrifugation at 14,000 rpm at 4 °C for 15 min. Protein concentration was determined using a Bradford assay (Bio-Rad, Hercules, CA, USA). For Western blot analysis, 20 μg of each sample was prepared for SDS-PAGE (SDS Poly-acrylamide-gel-electrophoresis) and denatured at 95 ℃ for 10 min. The samples prepared from total lysates were loaded and separated by SDS-PAGE (8% or 10%), and then transferred to PVDF membranes (pore size 0.45 μm; PerkinElmer, Waltham, MA, USA) by semi-dry transfer cell (Bio-Rad). After blocking with 5% skim milk in PBS-T (0.1% Tween-20), the membranes were hybridized with primary antibodies at 1/1000 dilution at 4 °C overnight. On the next day, membranes were washed with PBS-T followed by incubation with HRP-conjugated anti-mouse or anti-rabbit secondary antibody (DAKO, Santa Clara, CA, USA) at 1/5000 dilution at room temperature for 1 h as appropriate. […]

[2] = test system: Aβ40 production in N2a/APPswe stable cells; assay: Aβ40 ELISA of culture medium; type: cell-based, mouse; conditions: 24 h
Procedure: Extracellular levels of soluble Aβ40 and Aβ42 were determined by LEGEND MAX™ β-Amyloid x-40 and X-42 ELISA Kit (Biolegend, San Diego, CA, USA). Overexpression of the APP Swedish mutation (APPswe) in the N2a neuronblastoma cell line was called the N2a/APPswe cell line. N2a/APPswe stable cells were seeded at 8 × 10^5 cells in 6 cm dishes. After overnight incubation, the cells were treated with curcumin and TML-6 for 24 h. […] The culture supernatant was collected and centrifuged at 1500× g at 4 °C for 5 min to remove cells. The culture supernatants from various treatments were conducted to examine the Aβ levels according to the manufacturer’s instructions. The samples for the detection of soluble Aβ levels were diluted in the supernatant at a 1:10 dilution for this experiment. Levels of soluble Aβ were detected by measuring the OD at 620 nm (Molecular Devices, San Jose, CA, USA). The calculation of Aβ levels was based on the standard curves of Aβ40 and Aβ42, respectively.

[3] = Water solubility (preformulation, preliminary studies); type: physicochemical; conditions: unformulated
Procedure: The active pharmaceutical ingredients of TML-6 were synthesized and physico-chemical properties were characterized by SinoPharm Pharmaceutical Company (SPT), Tainan, Taiwan. Preformulation studies on the solubility of TML-6 were conducted by Value Pharmaceutical Services (VPS) Company, Jiansu, China. All the data in this study were conducted using unformulated TML-6. Formulation to optimize the solubility and permeability of TML-6 is under development for toxicological studies.

Huh-7 cells = assay: Cytotoxicity assay by Cell Counting Kit-8 (CCK-8); type: cell-based, human; conditions: Huh-7, 24 h
Procedure: The cytotoxicity assay was performed using the Cell Counting Kit-8 (CCK-8, Sigma). We dissolved 0.0524 g of TML-6 (molecular weight is 523.62 g/mol) in 10 mL DMSO to obtain TML-6 stock at 10 mM for cell line study. […] Briefly, Huh-7 cells were seeded overnight in 96-well plates at 5000 cells/well and then subjected to traditional curcumin or TML-6 treatment for 24 h. At each time point, a CCK-8 solution (0.25 mg/mL) was added to the medium in each well for an additional 4 h incubation, and absorbance was measured at 570 nm using an ELISA reader.

[4] = test system: human neuroglioma H4-APP751 stable cell line; parameters: method as in PMID 20622013; conditions: 15 and 20 μM, no cytotoxicity; cited from earlier work
3xTg AD transgenic mice = assay: Morris water maze test in 3xTg AD transgenic mice; type: in vivo, mouse; conditions: 150 mg/kg/day in diet for four months; six-month-old 3xTg AD mice; vs vehicle control
Procedure: The triplex transgenic mouse model (3xTg-AD, APP Swedish, MAPT P301L, and PSEN1 M146V) was adopted as the AD model and bred at the laboratory animal center of National Cheng Kung University (NCKU), Tainan, Taiwan. The mice were housed in a room maintained on a 12 h light–dark cycle and fed ad libitum. Six-month old 3xTg-AD mice were used for animal experiments. Experimental procedures for handling the mice were in accordance with the guidelines of the Institutional Animal Care and Use Committee (IACUC) of NCKU. These mice develop plaques and tangles pathology. Aβ deposition is progressive, and deposition appears as early as nine months for triplex-Tg mice. The AD transgenic mice were fed with the control diet (Laboratory Rodent Diet 5001, LabDiet, St. Louis, MO, USA), the control diet plus traditional curcumin (150 mg/kg), or the control diet plus TML-6 (150 mg/kg) for four months. Diets were stored at 4 °C and were added to mouse cage twice a week. The quantity of the diet consumed by the mice was determined daily. The concentration of curcumin and TML-6 in the diet was determined to be around 1.20 mg/g of diet after assaying by HPLC by the Development Center for the Biotechnology (DCB), Taipei, Taiwan.
For assessing spatial learning and memory, the Morris water maze was used as we described before. […] The time taken to reach the platform was recorded as escape latency.

rat = assay: Preliminary toxicological experiments in the rat model; type: in vivo; conditions: preliminary data

curcumin [reference compound]
reduction of APP protein expression level ([1]; 5 µg/mL): 30%
Aβ40 level vs control (in words) ([2]; different doses up to 20 µg/mL): increased to levels higher than those of the control
water solubility [3]: less than 0.1 mg/mL
IC50 (Huh-7 cells): 60 µM
cytotoxicity (CCK-8) (Huh-7 cells; up to highest concentration of 20 µg/mL): no obvious cytotoxicity
Aβ40 and Aβ42 levels (in words) [4]: significantly decreased
learning behavior in Morris water maze (in words) (3xTg AD transgenic mice): no significant difference

CCN(CC)C(=O)CC(C)(C(=O)/C=C/c1ccc(OC)c(OC)c1)C(=O)/C=C/c1ccc(OC)c(OC)c1 [TML-6]
reduction of APP protein expression level ([1]; 1.96 µg/mL): 60%
Aβ40 level, reduced to % as compared with control group ([2]; 3.14 µg/mL, culture medium): approximately 86%
solubility ([3]; water): < 100 µg/mL
cytotoxicity (CCK-8) (Huh-7 cells; concentrations below 5 μM (2.61 µg/mL)): no cytotoxicity
toxicity in the rat model (in words) (rat): no obvious toxicity
learning behavior in Morris water maze (in words) (3xTg AD transgenic mice): significantly improved hippocampus-dependent learning behavior
